# Assay results published in patent US20240207216A1, “COMPOSITIONS AND METHOD FOR TREATING GUT PERMEABILITY CAUSED BY HYDROGEN SULFIDE PRODUCING BACTERIA” (UNM RAINFOREST INNOVATIONS, priority 2022, published 2024).
# What was measured:
# Format in all cases: cell-based, murine
# [1] = test system: secreted TNF-α; experiment: DSV-induced secreted TNF-α, Western blot of RAW cell culture supernatant; details: 1 h before DSV 4 h, DSV alone 18.73±6.21
# Experimental: FIG. 12. LY294002 inhibits DSV-induced activation of PI3K/Akt/TNF pathway. (A) RAW cells were treated with LY at either 10 μM or 50 μM for one hour before infection with DSV for four hours. Cells were lysed and protein lysate was prepared. Fifty μg of protein lysate was separated on SDS-PAGE and analyzed for p-Akt, Akt, TNF, iNOS, p-p70S6K, and total p70S6K by Western blotting. Actin was used as a loading control. (B) Quantification of p-Akt-Akt Western blot. (C) Quantification of p-P70/P70 Western blot. (D) Quantification of TNF-α/actin Western blot. (E) Post-infection, RAW cell culture supernatant was collected and proteins were precipitated using ethanol precipitation. Proteins were resuspended in PBS and 50 μg of proteins were loaded on SDS-PAGE and secreted TNF-α was detected using TNF-α antibody. Actin was used as a loading control.
# (§1) RAW 264.7 murine macrophage-like cells were grown in DMEM+10% FBS without any use of antibiotics or antimycotics. Cells were grown at 37° C. in a humidified incubator with 5% CO2. Prior to the day of infection, 8×10^5 cells were plated in a six-well plate and infected with DSV at multiplicity of infection 20 (MOI 20) for various times. For drug treatments, cells were incubated with LY294002 at 10 μM or 50 μM for one hour followed by DSV infection for 30 minutes or four hours. For TL2-C29 treatment, cells were incubated with the inhibitor at 200 μM for three hours followed by infection with DSV for four hours.
# (§2) Cells were lysed in Lysis buffer containing protease and phosphatase inhibitors (Thermo Fisher Scientific, Inc., Waltham, MA) for 20 minutes at 4° C. Lysates were centrifuged at 12,000 rpm for five mins at 4° C. and supernatants were collected. Protein concentration in the supernatants was determined with Bradford reagent (Bio-Rad Laboratories, Inc., Hercules, CA). 50 μg of protein samples were run on SDS-PAGE (4-20% tris-glycine) and transferred to nitrocellulose membranes. Membranes were blocked in 5% milk in PBS-T (0.1% Tween 20) for 30 minutes followed by overnight incubation in primary antibodies in cold room. […]
# [2] = test system: p-p65 NF-κB; experiment: DSV-induced phospho-p65 NF-κB, Western blot in RAW cells; details: 50 μM pre-treatment, DSV 30 minutes; DSV alone 3.54±0.59
# Experimental: FIG. 13. LY294002 inhibits DSV-induced activation of PI3K/Akt/TNF pathway. (A) Quantification of secreted TNF-α. (B) Cells were treated with LY at either 10 μM or 50 μM for one hour before infection with DSV for four hours. Protein lysate was analyzed for iNOS expression. (C) Cells were pretreated with or without LY 50 μM followed by infection with DSV for 30 minutes and protein samples were analyzed for p-p65 NF-κB and total NF-κB. (D) Blots were quantified by analyzing the ratio of p-NF-κB/NF-κB. Values were normalized and compared to control. Data represents Mean±SEM from at least three independent experiments. Values were normalized to control. One-way ANOVA was used to determine the statistical significance. Values were compared to DSV, with a post-hoc Dunnett's test. *p<0.05, **p<0.01, ***p<0.001.
# RAW 264.7 murine macrophage-like cells were grown in DMEM+10% FBS without any use of antibiotics or antimycotics. Cells were grown at 37° C. in a humidified incubator with 5% CO2. […]
# Cells were lysed in Lysis buffer containing protease and phosphatase inhibitors (Thermo Fisher Scientific, Inc., Waltham, MA) for 20 minutes at 4° C. […] Protein concentration in the supernatants was determined with Bradford reagent (Bio-Rad Laboratories, Inc., Hercules, CA). […]
# [3] = test system: p-p70S6K; experiment: DSV-induced p-P70S6K, Western blot in RAW cells; details: 1 h before DSV 4 h, DSV alone 1.96±0.20
# Experimental: as §1, §2
# [4] = test system: p-Akt/Akt; experiment: DSV-induced Akt phosphorylation, Western blot in RAW cells; details: 1 h before DSV 4 h, DSV alone 4.88±1.31
# Experimental: as §1
# (§3) Cells were lysed in Lysis buffer containing protease and phosphatase inhibitors (Thermo Fisher Scientific, Inc., Waltham, MA) for 20 minutes at 4° C. Lysates were centrifuged at 12,000 rpm for five mins at 4° C. and supernatants were collected. Protein concentration in the supernatants was determined with Bradford reagent (Bio-Rad Laboratories, Inc., Hercules, CA). 50 μg of protein samples were run on SDS-PAGE (4-20% tris-glycine) and transferred to nitrocellulose membranes. Membranes were blocked in 5% milk in PBS-T (0.1% Tween 20) for 30 minutes followed by overnight incubation in primary antibodies in cold room. All antibodies except iNOS were purchased from Cell Signaling Technology (Danvers, MA): Actin (4970), p-AktS473(4060), p-Akt T308(13038), Akt (9272), p-P70S6K (9205), P70S6K (2708, TNF-α (19948). iNOS antibody was purchased from Abcam (Cambridge United Kingdom). Antibodies were diluted as recommended by the manufacturer. The following day, blots were washed with PBS-T and incubated with secondary antibodies (Cell Signaling Technology, Danvers, MA) at room temperature for one hour (dilution of 1:2000) and developed using enhanced chemiluminescence HRP signal (Thermo Fisher Scientific, Inc., Waltham, MA).
# (§4) All graphs were generated using PRISM 9.4.1 GraphPad Software Inc., San Diego, CA). Data is plotted as Mean±SEM relative to control. Each experiment was conducted at least three independent times. […]
# [5] = test system: TNF-α; experiment: DSV-induced cellular TNF-α expression, Western blot in RAW cells; details: 1 h before DSV 4 h, DSV alone 37.01±4.28
# Experimental: as §1, §3, §4
# [6] = test system: iNOS; experiment: DSV-induced iNOS expression, Western blot in RAW cells; details: 1 h before DSV 4 h, DSV alone 23.54±5.39
# Experimental: as §1, §3, §4
compound,measurement,setting,value
O=c1cc(N2CCOCC2)oc2c(-c3ccccc3)cccc12 [LY294002],"secreted TNF-α, normalized to control",[1]; 10 μM,1.45±0.24
same,"secreted TNF-α, normalized to control",[1]; 50 μM,1.34±0.57
same,"p-NF-κB/NF-κB (p-p65), normalized to control",[2],1.91±0.54
same,"p-P70/P70, normalized to control",[3]; 10 μM,0.081±0.026
same,"p-P70/P70, normalized to control",[3]; 50 μM,0.088±0.029
same,"p-Akt/Akt, normalized to control",[4]; 10 μM,0.52±0.11
same,"p-Akt/Akt, normalized to control",[4]; 50 μM,0.40±0.09
same,"cellular TNF-α/actin, normalized to control",[5]; 10 μM,13.42±2.13
same,"cellular TNF-α/actin, normalized to control",[5]; 50 μM,6.044±2.139
same,"iNOS expression, normalized to control",[6]; 10 μM,5.45±0.17
same,"iNOS expression, normalized to control",[6]; 50 μM,2.28±0.58
